According to patent US20250127698A1, “Hair Perming Compositions With Amine Derivatives” (ELC Management LLC, priority 2023, published 2025):

How the values were obtained:
[1] = pH of hair perming composition; type: physicochemical; settings: for pH: hair perming composition: base of Table 2 (7.50% thioglycolic acid) plus alkalizer, same molar percentage of alkalizer
From the text: For testing, we prepared the hair perming compositions shown by Tables 2 and 3, below. […] All compositions contain the same molar percentage of alkalizer, the water content being adjusted accordingly.

[2] = Curl efficiency after hair curling treatment; design: species or system human; settings: Type 1 Caucasian hair; for Curl Efficiency (%) After Treatment, 1 Wash and Dry: 1 wash with 5% SDS solution; for Curl Efficiency (%) After Treatment, 8 Washes and Dry: equivalent of 8 washes with 5% SDS solution
From the text: (§1) The ability of each test composition to curl hair was established by measuring “curl efficiency”. Curl efficiency is a measure of curl tightness following a hair curling treatment. The higher the efficiency, the tighter the curl. We used a well-known method of measuring curl efficiency, wherein a portion of untreated straight hair of known length, Lu, is secured on an arrangement of pegs to form a sine wave pattern of five cycles, crest-to-crest. Because the pegs are fixed, the ideal length, Li, of the portion of hair when arranged into the five-cycle wave pattern, is known. Starting with a straight swatch of hair of length Lu, the ideal outcome would be a curled swatch of hair with a length of Li. Curl efficiency is a measure of how closely the ideal is attained.
(§2) Two types of hair samples were tested for curling; mixed sourced virgin Type 1Caucasian hair, and single sourced virgin Type 1 hair. For straightening, mixed sourced virgin Type 2C (very wavy) Caucasian hair was tested. Hair straightening test samples were prepared by collecting hair fibers into tresses, and clamping each tress at both ends. For those test samples that were to undergo a straightening treatment, the length, Lu, was measured between two previously determined points.
(§3) Each hair tress was wetted (reverse osmosis water). For curling, each hair tress was wound along a peg board to form a sine wave pattern of five cycles, as described above. For straightening, each hair tress was held on a board in a straight conformation, tension was applied, and the ends of the tress were secured. All test samples (curling or straightening) were allowed to dry before proceeding. Each board with a hair tress test sample was dipped for 10 seconds into a beaker with one of the hair perming compositions. After removing a board from solution, it was immediately placed in an oven for 20 minutes at 37° C. (normal body temperature). The test sample was removed from the oven, and rinsed for five minutes with 37° C. water, being careful not to allow the running water to fall directly on the hair tresses. After blotting with a paper towel, test samples were allowed to rest for five minutes at room temperature, for air oxidation to occur. The hair straightening test samples were removed from the board, blow dried and flat ironed at 200° C., which is commonly done in salon practice. At this point, the ideal length, Li, was measured between the two previously determined point mentioned above. Thereafter, each sample was rebound to the board.
(§4) Each bound hair tress was submerged for ten seconds in a 2% solution of H2O2 to neutralize the reducing agent and promote S-S bond formation, so that the hair tress would retain a desired shape (sine wave pattern or straight) when removed from the board. Each hair tress rested at room temperature for about five minutes, then was rinsed under 37° C. running water for five minutes, and subsequently blotted with a paper towel. Each test sample hair tress was removed from the board, laid on a flat surface, and allowed to dry. The fully permed dry tresses were washed in 5% SDS (sodium dodecyl sulfate) solution (which simulates salon practice) and allowed to dry overnight.
(§5) For the curling test samples, the length, Lt, of five waves, crest to crest was measured. For the straightening test samples, the final length, Lt, was measured between the two previously determined points. At this point, differential scanning calorimetry (DSC) measurements were made on a portion of each hair tress test sample. Also, for longevity performance, each tress was subjected to the equivalent of eight hand washings in 5% SDS solution using the GyroWash color fastness to laundering tester, and allowed to dry, before another length measurement, Lt, was made.
(§6) Curl efficiencies were computed using Equation 1.
(§7) [formula] • Lu=length of the untreated hair tress • Lt=crest-to-crest length of the five-wave portion of the treated hair tress • Li=ideal length of curled hair […]

[3] = Curl efficiency after hair curling treatment; design: species or system human; % Change In Curl Efficiency From 1 to 8 Washes: concentration or dose not given beside the values; settings: Type 1 Chinese hair; for Curl Efficiency (%) After Treatment, 1 Wash and Dry: 1 wash with 5% SDS solution; for Curl Efficiency (%) After Treatment, 8 Washes and Dry: equivalent of 8 washes with 5% SDS solution
From the text: as §1, §2, §3, §4, §5, §6, §7

[4] = Straightening efficiency after hair straightening treatment; design: species or system human; settings: Type 2C Caucasian hair; for Straightening Efficiency (%) After Treatment, 1 Wash and Dry: 1 wash with 5% SDS solution
From the text: The ability of each test composition to straighten curly hair was established by measuring “straightening efficiency”. Straightening efficiency represents the degree to which curly hair is made straight by a hair straightening treatment. We start with a curly, untreated hair tress of length Lu. The tress has an ideal straight length of Li, which is the length of the untreated tress when flat ironed to its maximum, straight length. After treatment the tress has a length of Lt. Straightening efficiency is the gain in length as a percentage of the maximum possible gain in length. […] A straightening efficiency of 100% means that the treated tress retained the maximum possible length.
as §2, §3, §4, §5
Straightening efficiencies were computed using Equation 2.
[formula] • Lu=length of the untreated hair tress • Lt=length of treated hair tress • Li=ideal length of straightened hair
(Li−Lu) represents the maximum possible increase in length as a result of treatment. […]

[5] = DSC keratin denaturation temperature change after curling treatment; design: species or system human; settings: for ΔT (TUntreated−TAlkalizer, keratin denaturation temperature): Type 1 Chinese hair after curling treatment, larger ΔT indicates more damage; for damage to hair (in words): hair curling treatment, Type 1 Chinese hair
From the text: (§8) This damage occurs at the level of keratin proteins.
(§9) Untreated hair was used as a control.
(§10) A larger ΔT indicates more damage.

[6] = DSC keratin denaturation temperature change after straightening treatment; design: species or system human; settings: for ΔT (TUntreated−TAlkalizer, keratin denaturation temperature): Type 3 Caucasian hair after straightening, larger ΔT indicates more damage; for damage to hair (in words): hair straightening treatment, Type 3 Caucasian hair
From the text: as §8, §9, §10

[7] = DSC keratin denaturation temperature change after curling treatment; settings: for ΔT (TUntreated−TAlkalizer, keratin denaturation temperature): Type 1 Caucasian hair after curling treatment, larger ΔT indicates more damage; for damage to hair (in words): hair curling treatment, Type 1 Caucasian hair
Experimental: It is known that the denaturation of keratin in hair can be detected by differential scanning calorimetry (DSC). DSC is a thermal analysis technique used to measure phase transition temperatures and heat of transformation (enthalpy) for endothermic and exothermic reactions.
For all of the test samples discussed above, DSC measurements were performed using the Discovery DSC 2500 (from TA Instruments. New Castle, DE). The experiments were carried out over a temperature range of 40° C. to 200° C., with a scan rate of 5° C./min under nitrogen protection. DSC samples were prepared by cutting tress samples into pieces (0.1 to 1.0 mm in size) and weighing. The hair samples were mixed with deionized water, and then sealed in high volume pans for at least 6 hours before measuring. The phase transition temperature (keratin denaturation temperature) of each hair sample was analyzed using TRIOS software (Discovery DSC 2500). Untreated hair was used as a control.
Each hair sample was analyzed at least twice, and the average temperature was obtained for data analysis. This was subtracted from the denaturation temperature of the control sample (ΔT=TUntreated−TAlkalizer). A larger ΔT indicates more damage.

Compound | pH of alkalizer composition ([1]; Table 7) | pH of alkalizer composition ([1]; Table 8) | pH of alkalizer composition ([1]; Table 9) | pH [1] | % Change In Curl Efficiency From 1 to 8 Washes [2] [%] | Curl Efficiency (%) After Treatment, 1 Wash and Dry [2] [%] | Curl Efficiency (%) After Treatment, 8 Washes and Dry [2] [%] | % Change In Curl Efficiency From 1 to 8 Washes [3] [%] | Curl Efficiency (%) After Treatment, 1 Wash and Dry [3] [%] | Curl Efficiency (%) After Treatment, 8 Washes and Dry [3] [%] | Straightening Efficiency (%) After Treatment, 1 Wash and Dry [4] [%] | ΔT (TUntreated−TAlkalizer, keratin denaturation temperature) [5] [C. °] | ΔT (TUntreated−TAlkalizer, keratin denaturation temperature) [6] [°C] | ΔT (TUntreated−TAlkalizer, keratin denaturation temperature) [7] [°C] | straightening (in words) [4] | damage to hair (in words) [5] | damage to hair (in words) [6] | damage to hair (in words) [7] | further results
CCC(N)(CO)CO [AEPD, 2-Amino-2-ethyl-1,3-propanediol] | 9.09 | 9.09 | 8.98 | 9.09 | −6.40 | 43.93 | 41.12 | −15.09 | 53.93 | 45.79 | 94.70 | 1.31 | 1.13 | 2.36 |  |  |  |  | 
CC(N)(CO)CO [AMPD, 2-Amino-2-methyl-1,3-propanediol] | 9.09 | 9.04 | 9.04 | 9.04 |  |  |  |  |  |  |  | 0.68 | 0.32 | 1.66 | performed better than ammonium hydroxide and MEA, but not as well as AMP | less damage than ammonium hydroxide |  |  | 
N.O [Ammonium hydroxide, reference compound] | 9.14 | 9.14 | 9.14 | 9.14 |  |  |  |  |  |  |  | 0.80 |  |  |  |  |  |  | 
CN(C)C(C)(C)CO [DMAMP, 2-Dimethylamino-2-methyl-1-propanol] | 10.18 | 10.18 | 10.18 | 10.18 | −20.91 | 44.86 | 35.48 | −17.06 | 58.60 | 48.60 | 93.75 | 5.78 | 1.43 | 6.06 |  | caused the most damage | comparatively little damage | almost as much damage as NaOH | performance in curling, curl retention and degree of damage (FIG. 1, in words) [2]: did not perform as well as ammonium hydroxide, AMP or MEA; performance in curling, curl retention and degree of damage (FIG. 2, in words) [3]: did not perform as well as ammonium hydroxide, AMP or MEA; performance in straightening and degree of damage versus ammonium hydroxide, AMP and MEA (FIG. 3, in words) [4]: did perform well
NCCO [MEA, Monoethanolamine, reference compound] | 9.40 | 9.40 | 9.40 | 9.40 | −7.41 | 50.47 | 46.73 | −13.43 | 64.77 | 56.07 | 65.38 |  |  |  |  |  |  |  | 
NC(CO)(CO)CO [Tris, Tromethamine] | 8.36 | 8.36 | 8.36 | 8.36 |  |  |  |  |  |  |  | −0.77 | 0.07 | 1.11 | performed better than ammonium hydroxide and MEA, but not as well as AMP | less damage than ammonium hydroxide | less damage than ammonium hydroxide | less damage than ammonium hydroxide | 
